Test [1] deals with Stat1:Stat1 and Stat3:Stat3 dimers. Kind of test: Dissociation-reassociation analysis of pooled Sf-9 lysates by EMSA. The format is biochemical. Conditions: 30 min pre-treatment, 30-300 μM PY*LKTK or 3-1000 μM ISS 610, hSIE probe. How it is done: Cytosolic extract preparation and luciferase assays. Cytosolic extract preparation from fibroblasts and luciferase assays were previously described (Turkson, J. et al. (1998); Turkson, J. et al. (1999)). Briefly, after two washes with PBS and equilibration for 5 min with 0.5 ml PBS-0.5 mM EDTA, cells were scraped off the dishes and the cell pellet was obtained by centrifugation (4,500×g, 2 min, 4° C.). Cells were resuspended in 0.4 ml of low-salt HEPES buffer (10 mM HEPES (pH 7.8), 10 mM KCl, 0.1 mM EGTA, 0.1 mM EDTA, 1 mM phenylmethylsulfonyl fluoride, and 1 mM dithiothreitol) for 15 min, lysed by the addition of 20 μl of 10% Nonidet P-40 (NP-40), and centrifuged (10,000×g, 30 s, 4° C.) to obtain the cytosolic supernatant, which was used for luciferase assays (Promega) measured with a luminometer. Cytosolic lysates containing activated Stat3 or Stat1 that were used for dissociation-reassociation analysis were prepared from baculovirus-infected Sf-9 insect cells as previously described (Turkson, J. et al. (2001); Zhang, Y. et al. (2000)). Briefly, cultured dishes of Sf-9 cells were washed twice with ice-cold 1×PBS and then PBS containing 1 mM sodium orthovanadate.

Test [2] has as its target T1, Stat3 (Mus musculus, UniProt P42227). Details: nuclear extracts (prepared from epidermal growth factor (EGF)-stimulated fibroblasts); endogenous in cells; host or cells: NIH3T3 fibroblasts stimulated with EGF. Particulars: cited from earlier work.
In test [3] the test system is NIH3T3/v-Src. The test is classed as cell-based, mouse. Particulars: 1 mM, four days. How it is done: (§1) Cell proliferation, soft-agar growth and Apo-BrdU labeling studies. Proliferating fibroblasts and human tumor cells were counted by phase-contrast microscopy for viable cells (using tyrpan blue exclusion). Colony formation assays in six-well dishes and quantification of colonies by iodonitrotetrazolium violet have been previously described (Turkson, J. et al. (1999)). Treatment of cells with inhibitors was initiated 1 day after seeding cells by adding 75 μl of medium with or without inhibitor, and repeated every two to three days. Apoptosis was measured by Apo-BrdU labeling and following the supplier's (PharMingen; San Diego, Calif.) instructions.
(§2) Stat3 has an essential role in cell proliferation, and constitutively-active Stat3 is required for growth of transformed and tumor cells that harbor aberrant Stat3 signaling. Studies were performed to determine the effects of the peptidomimetic-mediated inhibition of Stat3 on cell proliferation using trypan blue exclusion for viable cell counts.

Test [4] relates to MDA-MB-231. The test is classed as cell-based, human. Conditions: 1 mM, MDA-MB-231, four days. How it is done: as §1, §2
Test [5] relates to MDA-MB-435. The format is cell-based, human. Particulars: 1 mM, MDA-MB-435, four days. How it is done: as §1, §2
Test [6] relates to NIH3T3/v-Src. Kind of test: Apo-BrdU labeling and flow cytometry for apoptotic cells. Particulars: 48 h. The format is cell-based, mouse. Here is the method:
as §1
(§3) Because one of the functions of Stat3 is to protect transformed or tumor cells from apoptosis (Catlett-Falcone, R. et al. (1999b); Epling-Burnette, P. K. et al. (2001); Grandis, J. R. et al. (2000); Bowman, T. et al. (2000b); Bromberg, J. F. et al. (1999)), the ability of peptidomimetics of the invention (and PY*LKTK-MTS for comparison) (SEQ ID NO. 1) to induce apoptosis in Stat3-dependent transformed fibroblasts was evaluated. Viral Src-transformed NIH3T3/v-Src fibroblasts were treated with or without compounds for 48 h. Treated cells were then labeled with Apo-BrdU (PharMingen; San Diego, Calif.) for detection of DNA breaks.

For test [7], the system named is NIH3T3. Described as above. The format is cell-based, mouse. Conditions: NIH3T3, 1 mM, 48 h, flow cytometry. How it is done:
as §1, §3

Test [8] deals with T1, Stat3. Details: nuclear extracts prepared from v-Src-transformed NIH3T3/v-Src; endogenous in cells; host or cells: NIH3T3/v-Src. Particulars: Turkson J. et al. (2001); cited from earlier work.

Square brackets hold non-standard residues; d marks the D form. Ends that are not written are not given here. pY = N[C@@H](Cc1ccc(OP(=O)(O)O)cc1)C(=O)O

T1 sequence (P42227 whole entry): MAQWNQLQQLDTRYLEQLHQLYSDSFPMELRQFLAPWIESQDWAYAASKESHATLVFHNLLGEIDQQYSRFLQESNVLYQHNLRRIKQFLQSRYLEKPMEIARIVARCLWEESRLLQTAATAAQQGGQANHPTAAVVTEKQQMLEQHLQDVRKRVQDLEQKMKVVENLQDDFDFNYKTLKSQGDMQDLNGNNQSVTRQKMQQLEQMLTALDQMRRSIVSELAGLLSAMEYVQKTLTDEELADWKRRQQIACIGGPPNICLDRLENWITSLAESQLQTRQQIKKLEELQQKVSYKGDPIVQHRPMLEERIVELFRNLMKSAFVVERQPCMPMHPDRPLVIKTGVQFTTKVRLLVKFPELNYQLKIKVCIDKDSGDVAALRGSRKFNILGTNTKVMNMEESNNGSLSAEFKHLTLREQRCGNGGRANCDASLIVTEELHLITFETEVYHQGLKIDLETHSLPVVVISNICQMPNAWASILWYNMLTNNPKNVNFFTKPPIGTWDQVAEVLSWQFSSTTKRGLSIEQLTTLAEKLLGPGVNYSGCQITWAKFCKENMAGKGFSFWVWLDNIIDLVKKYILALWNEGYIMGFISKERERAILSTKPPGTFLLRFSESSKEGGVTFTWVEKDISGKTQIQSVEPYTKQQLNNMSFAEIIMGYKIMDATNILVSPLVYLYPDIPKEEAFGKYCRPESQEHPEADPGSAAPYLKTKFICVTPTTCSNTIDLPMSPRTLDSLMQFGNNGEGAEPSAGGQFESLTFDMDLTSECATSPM

Take “PY*LKTK (P[pY]LKTK) [reference compound]”: the “effect on STAT dimers in mixed Stat1:Stat1 and Stat3:Stat3 lysates” value in test [1] was “appearance of an additional intermediate band representing Stat1:Stat3 heterodimers”. For the same substance, in test [2], the “disruption of Stat3:Stat3 dimer formation and Stat3 DNA-binding activity, as reported earlier” value is “disrupt Stat3:Stat3 dimer formation”.

“PY*LKTK-AAVLLPVLLAAP (P[pY]LKTKAAVLLPVLLAAP) [PY*LKTK-MTS]”: the cell proliferation entry in test [3], in test [4] and in test [5] was “significantly suppresses proliferation” in each case. The “percent of apoptotic cells” value in test [6] (NIH3T3/v-Src, 1 mM, Apo-BrdU, flow cytometry) came to 27.6%; in test [7] it was 3.7%. Also, the “incorporated BrdUTP compared to controls (in words)” value in test [6] (Src-transformed fibroblasts) is on record as “dramatic increases in incorporated BrdUTP”. Further, the “constitutive Stat3 activation in Src-transformed fibroblasts” value in test [8] is recorded as “inhibits constitutive Stat3 activation”.

Source of the values: patent publication US7842671B1, “Peptidomimetic inhibitors of STAT activity and uses thereof” (University of South Florida, priority 2003, dated 2010).
